Earlier results in PMC10526633 (Structure (London, England : 1993), 2023).

Tests used:
SKBr3 cells = settings: highest tested concentration of 20 μM
HER2 signaling = settings: highest tested concentration of 20 μM
N62Q mutant cells = settings: N62Q GRP94 mutant cells

COC(=O)c1c(O)cc(O)c(Cl)c1CCc1nccn1Cc1ccccc1 [BnIm, methyl 2-(2-(1-benzyl-1H-imidazol-2-yl)ethyl)-3-chloro-4,6-dihydroxybenzoate]
Cytotoxicity in SKBr3 cells (SKBr3 cells): no cytotoxicity | Effect on HER2 signaling in SKBr3 cells (HER2 signaling): no effect

CC(C)NCCCn1c(Sc2cc(Cl)cc(Cl)c2)nc2c(N)ncnc21 [PU-WS13]
Sensitivity of N62Q mutant cells to ligand (N62Q mutant cells): insensitivity | Effect of limited sugar removal on ligand binding to GRP94 (GRP94; EndoH, retains N-acetylglucosamine attached to Asn, ref Yan et al. cell Reports 2020): partially reduces | Effect of N217A mutation on ligand binding (GRP94; N217A mutant of GRP94): no effect | Effect of complete deglycosylation on GRP94 binding to ligand (GRP94; PNGase F, ref Yan et al. cell Reports 2020): abolishes
